Assay results taken from ChEMBL document CHEMBL1201862, “PubChem BioAssay data set” (2004).
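Briefly, cells in 96-well plates were exposed to five compound concentrations for 48 h, and endpoints were estimated by linear interpolation. GI50 is the concentration that inhibits growth by half.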 Active and inactive are the calls of the source. Rule as the data show it: active = GI50 up to about 1.1 µM and inactive = higher.

Assays:
Assay in all cases: DTP human tumour cell line panel, 48 h
SF-295 = tested on: SF-295
EKVX = tested on: EKVX
MDA-MB-231 = tested on: MDA-MB-231
OVCAR-3 = tested on: OVCAR-3
ACHN = tested on: ACHN
SW-620 = tested on: SW-620
OVCAR-8 = tested on: OVCAR-8
NCI-H23 = tested on: NCI-H23
HCT-116 = tested on: HCT-116
MDA-MB-435 = tested on: MDA-MB-435
NCI-H460 = tested on: NCI-H460
UACC-257 = tested on: UACC-257
DU-145 = tested on: DU-145
CCRF-CEM = tested on: CCRF-CEM
Malme-3M = tested on: Malme-3M
OVCAR-5 = tested on: OVCAR-5
PC-3 = tested on: PC-3
COLO 205 = tested on: COLO 205
SK-OV-3 = tested on: SK-OV-3
HL-60 = tested on: HL-60

Structure (SMILES) | GI50 (SF-295) | GI50 (EKVX) | GI50 (MDA-MB-231) | GI50 (OVCAR-3) | GI50 (ACHN) | GI50 (SW-620) | GI50 (OVCAR-8) | GI50 (NCI-H23) | GI50 (HCT-116) | GI50 (MDA-MB-435) | GI50 (NCI-H460) | GI50 (UACC-257) | GI50 (DU-145) | GI50 (CCRF-CEM) | GI50 (Malme-3M) | GI50 (OVCAR-5) | GI50 (PC-3) | GI50 (COLO 205) | GI50 (SK-OV-3) | GI50 (HL-60)
Nc1nc(SCCc2ccccc2)c2nc[nH]c2n1 | 71.9 µM (inactive) | 25.2 µM (inactive) | 51.1 µM (inactive) | 45.1 µM (inactive) | 35.7 µM (inactive) | 76.9 µM (inactive) | 95.9 µM (inactive) | 69.5 µM (inactive) | 68.5 µM (inactive) | 81.7 µM (inactive) | 33.9 µM (inactive) | 23.7 µM (inactive) | 36.2 µM (inactive) | 31.2 µM (inactive) | 64.9 µM (inactive) | 72.3 µM (inactive) | 38.9 µM (inactive) | – | – | –
COC(=O)C1(CCC(C)=O)CCCCCC1=O (stereo not given) | > 100 µM (inactive) | > 100 µM (inactive) | > 100 µM (inactive) | > 100 µM (inactive) | > 100 µM (inactive) | > 100 µM (inactive) | – | > 100 µM (inactive) | > 100 µM (inactive) | > 100 µM (inactive) | > 100 µM (inactive) | > 100 µM (inactive) | > 100 µM (inactive) | – | > 100 µM (inactive) | > 100 µM (inactive) | > 100 µM (inactive) | > 100 µM (inactive) | > 100 µM (inactive) | –
CC#CS(=O)(=O)c1ccccc1 | 3.56 µM (inactive) | 18.6 µM (inactive) | 10.6 µM (inactive) | 1.63 µM (inactive) | 3.57 µM (inactive) | 3.78 µM (inactive) | 3.02 µM (inactive) | 5.2 µM (inactive) | 4.36 µM (inactive) | 10.9 µM (inactive) | 17.5 µM (inactive) | 2.88 µM (inactive) | 2.82 µM (inactive) | – | 2.88 µM (inactive) | 5.58 µM (inactive) | 12.1 µM (inactive) | 11.2 µM (inactive) | 17.3 µM (inactive) | 1.8 µM (inactive)
CC(C)c1c(P(=O)(c2ccccc2)c2ccccc2)n(C)c2ccccc12 | 45.6 µM (inactive) | > 100 µM (inactive) | > 100 µM (inactive) | 26.4 µM (inactive) | 35.2 µM (inactive) | > 100 µM (inactive) | 89.9 µM (inactive) | 40.5 µM (inactive) | 35.9 µM (inactive) | 45.5 µM (inactive) | 66.8 µM (inactive) | 90.6 µM (inactive) | 80.2 µM (inactive) | 59 µM (inactive) | > 100 µM (inactive) | 54.7 µM (inactive) | 58.7 µM (inactive) | 32.4 µM (inactive) | – | 28.1 µM (inactive)
CCCCn1c2c(n(CCCC)c1=S)-c1c(n(CCCC)c(=S)n1CCCC)S[Se][Se]S2 | 3.51 µM (inactive) | 6.01 µM (inactive) | 2.33 µM (inactive) | 0.931 µM (active) | 2.67 µM (inactive) | 0.778 µM (active) | 4.16 µM (inactive) | 13.2 µM (inactive) | 4.27 µM (inactive) | 4.95 µM (inactive) | 9.95 µM (inactive) | 8.87 µM (inactive) | 16.9 µM (inactive) | 0.26 µM (active) | 0.625 µM (active) | 2.17 µM (inactive) | 2.26 µM (inactive) | 1.62 µM (inactive) | 22 µM (inactive) | –
O=C(O)C1CC2(C1)CC(C(=O)O)C2 (stereo not given) | > 100 µM (inactive) | > 100 µM (inactive) | > 100 µM (inactive) | > 100 µM (inactive) | > 100 µM (inactive) | > 100 µM (inactive) | – | > 100 µM (inactive) | > 100 µM (inactive) | > 100 µM (inactive) | > 100 µM (inactive) | > 100 µM (inactive) | > 100 µM (inactive) | – | > 100 µM (inactive) | > 100 µM (inactive) | > 100 µM (inactive) | > 100 µM (inactive) | > 100 µM (inactive) | –
CC1=C[C@H](O)[C@@]2(C)[C@@H]([C@@H]1C)[C@H]1CC[C@@H]3[C@@]4(C)CC[C@H](O)C(C)(C)[C@@H]4CC[C@@]3(C)[C@]1(C)C[C@@H]2O | 16.1 µM (inactive) | 12.4 µM (inactive) | 20.3 µM (inactive) | 16.8 µM (inactive) | – | 22.1 µM (inactive) | 20.6 µM (inactive) | 23.1 µM (inactive) | 12.4 µM (inactive) | 20.7 µM (inactive) | 18.9 µM (inactive) | 20.1 µM (inactive) | 16.4 µM (inactive) | 16.9 µM (inactive) | 20.6 µM (inactive) | 15.6 µM (inactive) | 20.6 µM (inactive) | 16.6 µM (inactive) | 18.4 µM (inactive) | –
O=C(/C=C/c1ccccc1)N1CCCCC1 | > 100 µM (inactive) | > 100 µM (inactive) | > 100 µM (inactive) | > 100 µM (inactive) | > 100 µM (inactive) | > 100 µM (inactive) | > 100 µM (inactive) | > 100 µM (inactive) | > 100 µM (inactive) | > 100 µM (inactive) | > 100 µM (inactive) | > 100 µM (inactive) | > 100 µM (inactive) | > 100 µM (inactive) | – | > 100 µM (inactive) | > 100 µM (inactive) | > 100 µM (inactive) | > 100 µM (inactive) | > 100 µM (inactive)
COc1cccc(N(CN2C(=O)CCC2C(=O)O)C(C)=O)c1 (stereo not given) | > 100 µM (inactive) | > 100 µM (inactive) | > 100 µM (inactive) | > 100 µM (inactive) | > 100 µM (inactive) | > 100 µM (inactive) | > 100 µM (inactive) | > 100 µM (inactive) | > 100 µM (inactive) | > 100 µM (inactive) | > 100 µM (inactive) | > 100 µM (inactive) | > 100 µM (inactive) | – | > 100 µM (inactive) | > 100 µM (inactive) | > 100 µM (inactive) | > 100 µM (inactive) | > 100 µM (inactive) | > 100 µM (inactive)
CCc1nc(N)nc(N)c1-c1ccc([N+](=O)[O-])c(NCc2ccccc2)c1 | 10.4 µM (inactive) | 11.2 µM (inactive) | 14.8 µM (inactive) | 13.2 µM (inactive) | 15.3 µM (inactive) | 12.6 µM (inactive) | 16.5 µM (inactive) | 14.5 µM (inactive) | 7.36 µM (inactive) | 14.6 µM (inactive) | 6.17 µM (inactive) | 12.8 µM (inactive) | 14.9 µM (inactive) | 8.85 µM (inactive) | – | 22.4 µM (inactive) | 12.8 µM (inactive) | 14.7 µM (inactive) | 20.4 µM (inactive) | 5.82 µM (inactive)
O=C(Nc1ccccc1)c1cc2ccccc2c(/N=N\c2cccc([N+](=O)[O-])c2)c1O | > 100 µM (inactive) | 39 µM (inactive) | 56.8 µM (inactive) | > 100 µM (inactive) | 31 µM (inactive) | > 100 µM (inactive) | 78.2 µM (inactive) | > 100 µM (inactive) | > 100 µM (inactive) | > 100 µM (inactive) | > 100 µM (inactive) | > 100 µM (inactive) | > 100 µM (inactive) | > 100 µM (inactive) | 7.26 µM (inactive) | > 100 µM (inactive) | > 100 µM (inactive) | > 100 µM (inactive) | 30.3 µM (inactive) | –
C=CC[C@]1(/C=N/O)CN(S(=O)(=O)CC[Si](C)(C)C)C[C@H]2CC=CC[C@H]21 | 15.6 µM (inactive) | 25.7 µM (inactive) | 24.4 µM (inactive) | – | > 10 µM (inactive) | 18.1 µM (inactive) | 24 µM (inactive) | 27.7 µM (inactive) | 14.2 µM (inactive) | 29.4 µM (inactive) | 18.4 µM (inactive) | 21.2 µM (inactive) | 20.6 µM (inactive) | 14 µM (inactive) | 20.5 µM (inactive) | 21.7 µM (inactive) | 17.6 µM (inactive) | 17.3 µM (inactive) | 24.2 µM (inactive) | –
COc1ccc2c(c1)CCc1c-2n(CCN2CCOCC2)c2ccc(OC)cc12 | 61.4 µM (inactive) | – | > 100 µM (inactive) | > 100 µM (inactive) | 82.2 µM (inactive) | 48.8 µM (inactive) | > 100 µM (inactive) | > 100 µM (inactive) | 63.2 µM (inactive) | > 100 µM (inactive) | 40.5 µM (inactive) | > 100 µM (inactive) | > 100 µM (inactive) | 16.4 µM (inactive) | 75.2 µM (inactive) | > 100 µM (inactive) | 63.2 µM (inactive) | 32.8 µM (inactive) | > 100 µM (inactive) | –
CCOc1ccc2nc(NC(=O)C(=O)C3C(=O)C(CC4C(=O)c5ccccc5C4=O)C(=O)CC3(C)C)sc2c1 (stereo not given) | > 100 µM (inactive) | 32.9 µM (inactive) | 24 µM (inactive) | 66.7 µM (inactive) | > 100 µM (inactive) | > 100 µM (inactive) | > 100 µM (inactive) | 95.1 µM (inactive) | 86.7 µM (inactive) | > 100 µM (inactive) | > 100 µM (inactive) | > 100 µM (inactive) | > 100 µM (inactive) | 30.8 µM (inactive) | – | > 100 µM (inactive) | 65.8 µM (inactive) | > 100 µM (inactive) | > 100 µM (inactive) | 20.3 µM (inactive)
OCCN(CCO)c1nc(N2CCCCC2)c2nc(N(CCO)CCO)nc(N3CCCCC3)c2n1 [DIPYRIDAMOLE] | – | 25.6 µM (inactive) | 43.3 µM (inactive) | 12.4 µM (inactive) | 33.9 µM (inactive) | 58.3 µM (inactive) | 29.2 µM (inactive) | 65.3 µM (inactive) | 40.3 µM (inactive) | 69.7 µM (inactive) | 28 µM (inactive) | 39.3 µM (inactive) | 48.8 µM (inactive) | 20 µM (inactive) | 20.5 µM (inactive) | 90.8 µM (inactive) | 33.3 µM (inactive) | 41.9 µM (inactive) | – | 15.7 µM (inactive)
